One block for each compound: values may come before it. Calls of active or inactive are those of the source. The calls are words filed in the database; no cut-off is given here.
Key:
U-87 MG [1] = test: Antiproliferative activity against human U87 cells overexpressing EGFR variant III measured after 7 days by CCK8 assay; assay type: functional, cell-based, U-87MG ATCC
U87 [2] = test: Agonist activity at LXR in human U87 cells overexpressing EGFR variant III assessed as up regulation of SREBP1c mRNA expression measured after 48 hrs by SYBR green staining based qRT-PCR analysis; assay type: cell-based; conditions: filed as agonist
HEK-293T = test: Cytotoxicity against HEK293T cells measured after 7 days by CCK8 assay; assay type: cell-based; conditions: human, 168 h, time 7 day
U87 [3] = test: Agonist activity at LXR in human U87 cells overexpressing EGFR variant III assessed as up regulation of IDOL mRNA expression measured after 48 hrs by SYBR green staining based qRT-PCR analysis; assay type: cell-based; conditions: filed as agonist
A 172 = test: Antiproliferative activity against human A 172 cells measured after 7 days by CCK8 assay; conditions: A 172, 168 h
[4] = Cytotoxicity against human HA1800 cells measured after 7 days by CCK8 assay; assay type: cell-based; conditions: ha1800, 168 h, time 7 day
U87 [5] = test: Agonist activity at LXR in human U87 cells overexpressing EGFR variant III assessed as up regulation of ABCG1 mRNA expression measured after 48 hrs by SYBR green staining based qRT-PCR analysis; assay type: cell-based; conditions: filed as agonist
U87 [6] = test: Agonist activity at LXR in human U87 cells overexpressing EGFR variant III assessed as up regulation of APOE mRNA expression measured after 48 hrs by SYBR green staining based qRT-PCR analysis; assay type: cell-based; conditions: filed as agonist
U87 [7] = test: Agonist activity at LXR in human U87 cells overexpressing EGFR variant III assessed as up regulation of ABCA1 mRNA expression measured after 48 hrs by SYBR green staining based qRT-PCR analysis; assay type: cell-based; conditions: filed as agonist
U-87 MG [8] = test: Antiproliferative activity against LXRbeta knock-down human U87 cells overexpressing EGFR variant III measured after 7 days by CCK8 assay; assay type: functional, cell-based; conditions: U-87MG ATCC, time 7.0 day
U-251 = test: Antiproliferative activity against human U-251 cells measured after 7 days by CCK8 assay; conditions: U-251, 168 h
[9] = target: Retinoic acid receptor RXR-alpha/oxysterols receptor LXR-alpha (Homo sapiens, UniProt Q13133)
Description: Agonist activity at human RXRalpha/LXRalpha expressed in HEK293 cells measured after 20 hrs by dual luciferase reporter gene assay

[10] = target: Retinoic acid receptor RXR-alpha/oxysterols receptor LXR-beta (Homo sapiens, UniProt P55055)
Description: Agonist activity at human RXRalpha/LXRbeta expressed in HEK293 cells measured after 20 hrs by dual luciferase reporter gene assay

[11] = Effect on serum triglyceride level in Balb/c nu/nu mouse xenografted with human U87 cells overexpressing EGFR variant III at 50 mg/kg/day, ip for 15 days; assay type: ADME, organism-based; conditions: in vivo, 360 h, time 15 day
[12] = Toxicity in Balb/c nu/nu mouse xenografted with human U87 cells overexpressing EGFR variant III assessed as body weight loss at 50 mg/kg/day, ip for 15 days; assay type: organism-based; conditions: in vivo, 360 h, time 15 day
[13] = Half life in Sprague-Dawley rat at 10 mg/kg, iv measured after 24 hrs by LC-MS/MS analysis; assay type: ADME, organism-based; conditions: in vivo
U-87 MG [14] = test: Antitumor activity against human U87 cells overexpressing EGFR variant III xenografted in Balb/c nu/nu mouse assessed as reduction in tumor size at 50 mg/kg/day, ip for 15 days by caliper method; assay type: functional, organism-based; conditions: U-87MG ATCC, time 15.0 day
[15] = MRT (infinity) in Sprague-Dawley rat at 10 mg/kg, iv measured after 24 hrs by LC-MS/MS analysis; assay type: ADME, organism-based; conditions: in vivo
[16] = AUC (0 to t) in Sprague-Dawley rat at 10 mg/kg, iv measured after 24 hrs by LC-MS/MS analysis; assay type: ADME, organism-based; design: route intravenous, time 24 hrs, dose 10 mg/kg; conditions: in vivo
[17] = Tmax in Sprague-Dawley rat at 10 mg/kg, iv measured after 24 hrs by LC-MS/MS analysis; assay type: ADME, organism-based; conditions: in vivo
[18] = Cmax in Sprague-Dawley rat at 10 mg/kg, iv measured after 24 hrs by LC-MS/MS analysis; assay type: ADME, organism-based; design: route intravenous, time 24 hrs, dose 10 mg/kg; conditions: in vivo
[19] = AUC (0 to infinity) in Sprague-Dawley rat at 10 mg/kg, iv measured after 24 hrs by LC-MS/MS analysis; assay type: ADME, organism-based; design: route intravenous, dose 10 mg/kg, time 24 hrs; conditions: in vivo
[20] = Homo sapiens, U-87 MG, 168 h, read-out: IC50

Chain of Retinoic acid receptor RXR-alpha/oxysterols receptor LXR-beta (P19793 whole entry): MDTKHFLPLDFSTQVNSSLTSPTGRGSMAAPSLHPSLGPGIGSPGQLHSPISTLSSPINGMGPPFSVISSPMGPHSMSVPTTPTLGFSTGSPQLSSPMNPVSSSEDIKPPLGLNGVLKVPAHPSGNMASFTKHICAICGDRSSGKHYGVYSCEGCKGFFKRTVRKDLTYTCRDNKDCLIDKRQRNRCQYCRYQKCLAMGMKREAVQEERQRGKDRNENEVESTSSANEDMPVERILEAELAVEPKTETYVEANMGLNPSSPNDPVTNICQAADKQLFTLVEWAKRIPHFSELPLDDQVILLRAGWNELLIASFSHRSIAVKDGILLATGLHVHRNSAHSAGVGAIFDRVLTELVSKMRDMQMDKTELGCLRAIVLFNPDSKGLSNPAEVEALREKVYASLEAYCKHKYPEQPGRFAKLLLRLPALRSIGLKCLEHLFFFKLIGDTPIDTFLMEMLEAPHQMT
Chain of Retinoic acid receptor RXR-alpha/oxysterols receptor LXR-beta (P55055 whole entry): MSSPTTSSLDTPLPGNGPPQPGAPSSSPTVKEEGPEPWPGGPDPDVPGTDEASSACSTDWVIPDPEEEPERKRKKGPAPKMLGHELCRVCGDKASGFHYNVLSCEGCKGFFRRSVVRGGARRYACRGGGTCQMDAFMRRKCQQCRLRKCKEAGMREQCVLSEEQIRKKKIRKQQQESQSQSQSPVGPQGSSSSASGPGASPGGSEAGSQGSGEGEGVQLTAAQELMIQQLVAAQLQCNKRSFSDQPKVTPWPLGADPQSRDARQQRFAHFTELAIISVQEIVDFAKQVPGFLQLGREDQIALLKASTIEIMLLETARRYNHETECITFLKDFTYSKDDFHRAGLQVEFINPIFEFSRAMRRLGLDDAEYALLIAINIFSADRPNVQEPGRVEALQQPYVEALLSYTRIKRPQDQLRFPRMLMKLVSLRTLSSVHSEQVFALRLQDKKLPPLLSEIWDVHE
Chain of Retinoic acid receptor RXR-alpha/oxysterols receptor LXR-alpha (P19793 whole entry): as the sequence (P19793 whole entry) above
Chain of Retinoic acid receptor RXR-alpha/oxysterols receptor LXR-alpha (Q13133 whole entry): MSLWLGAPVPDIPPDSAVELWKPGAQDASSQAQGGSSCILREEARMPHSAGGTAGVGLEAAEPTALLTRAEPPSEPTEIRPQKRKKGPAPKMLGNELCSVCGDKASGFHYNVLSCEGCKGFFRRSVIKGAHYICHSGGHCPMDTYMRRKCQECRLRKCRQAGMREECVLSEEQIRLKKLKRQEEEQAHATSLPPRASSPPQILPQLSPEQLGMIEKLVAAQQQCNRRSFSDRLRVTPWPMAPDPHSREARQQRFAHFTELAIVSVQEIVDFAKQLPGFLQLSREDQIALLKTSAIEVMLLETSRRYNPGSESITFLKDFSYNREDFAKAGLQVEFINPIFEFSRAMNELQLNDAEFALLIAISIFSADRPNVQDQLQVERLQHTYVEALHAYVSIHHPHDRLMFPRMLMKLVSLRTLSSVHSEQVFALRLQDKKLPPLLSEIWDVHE

Structure (SMILES): CC(C)(C)OC(=O)N1CC[C@@]2(C(=O)Nc3ccccc32)[C@@H]1c1cccc(-c2cc(F)c(CO)c(S(C)(=O)=O)c2)c1
IC50 (U-87 MG [1]; u-87mg atcc): Not Active

Structure (SMILES): CC(C)(C)CC(=O)N1CC[C@]2(C(=O)Nc3ccccc32)[C@H]1c1cccc(-c2ccc(CO)c(S(C)(=O)=O)c2)c1
IC50 (U-87 MG [1]; u-87mg atcc): Not Active

Structure (SMILES): CC(C)(C)OC(=O)N1CC[C@@]2(C(=O)Nc3ccccc32)[C@@H]1c1cccc(Nc2ccc(CO)c(S(C)(=O)=O)c2)c1
IC50 (U-87 MG [1]; u-87mg atcc): Not Active

Structure (SMILES): CC(C)(C)OC(=O)N1CC[C@]2(C(=O)Nc3ccccc32)[C@H]1c1cccc(Nc2ccc(CO)c(S(C)(=O)=O)c2)c1
Activity (U87 [2]): Dose-dependent effect
Activity (HEK-293T): Non-Toxic
Activity (U87 [3]): Dose-dependent effect
IC50 (A 172): 6.03 µM
Activity [4]: Non-Toxic
Activity (U87 [5]): Dose-dependent effect
Activity (U87 [6]): Dose-dependent effect
IC50 (U-87 MG [1]; [20]): 1.78 µM
Activity (U87 [7]): Dose-dependent effect
Activity (U-87 MG [8]): inactive
IC50 (U-251): 2.23 µM

Structure (SMILES): CC(C)(C)CC(=O)N1CCC2(C(=O)Nc3ccccc32)C1c1cccc(-c2ccc(CO)c(S(C)(=O)=O)c2)c1 (centres undefined)
IC50 (U-87 MG [1]; u-87mg atcc): Not Active

Structure (SMILES): O=C(O)Cc1cccc(OCCCN(Cc2cccc(C(F)(F)F)c2Cl)CC(c2ccccc2)c2ccccc2)c1
EC50 [9]: 0.000401 µM
EC50 [10]: 0.000228 µM
IC50 (U-87 MG [1]; [20]): 3.65 µM
Activity [11]: Toxic

Structure (SMILES): Fc1ccc(-c2c3cccc(C(F)(F)F)c3nn2Cc2ccc(F)cc2Cl)cc1 [LXR-623]
IC50 (A 172): 8.3 µM
EC50 [9]: 0.000431 µM
EC50 [10]: 0.000212 µM
IC50 (U-87 MG [1]; [20]): 6.14 µM
Activity [11]: Toxic
IC50 (U-251): 3.06 µM

Structure (SMILES): CC(C)(C)OC(=O)N1CCC2(C(=O)Nc3ccccc32)C1c1cccc(Nc2ccc(CO)c(S(C)(=O)=O)c2)c1 (racemic)
Activity [12]: Non-Toxic
half-life [13]: 2.98 h
Activity (U-87 MG [14]): Active
MRT inf [15]: 3.48 h
AUC(0-t) at 24 h [16]: 1250 ng·h/mL
IC50 (U-87 MG [1]; [20]): 3.75 µM
Tmax [17]: 0.22 h
Activity [11]: Non-Toxic
Cmax [18]: 1010 ng/mL
AUC(0-inf) [19]: 1410 ng·h/mL

Structure (SMILES): CC(C)(C)CC(=O)N1CC[C@@]2(C(=O)Nc3ccccc32)[C@@H]1c1cccc(-c2ccc(CO)c(S(C)(=O)=O)c2)c1
IC50 (U-87 MG [1]; u-87mg atcc): Not Active

Second part, the compound after the results:

IC50 (U-87 MG [1]; [20]): 22.6 µM
Structure (SMILES): CC(C)(C)OC(=O)N1CCC2(C(=O)Nc3ccccc32)C1c1cccc(-c2ccccc2)c1 (centres undefined)

IC50 (U-87 MG [1]; [20]): 8.49 µM
Structure (SMILES): CC(C)(C)OC(=O)N1CCC2(C(=O)Nc3ccccc32)C1c1cccc(-c2cc(F)c(CO)c(S(C)(=O)=O)c2)c1 (centres undefined)

IC50 (U-87 MG [1]; [20]): 6.36 µM
Structure (SMILES): CC(C)(C)OC(=O)N1CC[C@]2(C(=O)Nc3ccccc32)[C@H]1c1cccc(-c2ccc(CO)c(S(C)(=O)=O)c2)c1

IC50 (U-87 MG [1]; [20]): 7.78 µM
Structure (SMILES): CC(C)(C)OC(=O)N1CC[C@]2(C(=O)Nc3ccccc32)[C@H]1c1cccc(-c2cc(F)c(CO)c(S(C)(=O)=O)c2)c1

IC50 (U-87 MG [1]; u-87mg atcc): Not Active
Structure (SMILES): CC(C)(C)OC(=O)N1CC[C@]2(C(=O)Nc3ccccc32)[C@H]1c1cccc(-c2cccc(S(C)(=O)=O)c2)c1

IC50 (U-87 MG [1]; u-87mg atcc): Not Active
Structure (SMILES): COC(=O)c1ccc(-c2cccc([C@@H]3N(C(=O)OC(C)(C)C)CC[C@@]34C(=O)Nc3ccccc34)c2)cc1S(C)(=O)=O

IC50 (U-87 MG [1]; u-87mg atcc): Not Active
Structure (SMILES): CN(C)C(=O)c1ccc(-c2cccc([C@H]3N(C(=O)OC(C)(C)C)CC[C@]34C(=O)Nc3ccccc34)c2)cc1Cl

IC50 (U-87 MG [1]; [20]): 13.3 µM
Structure (SMILES): COC(=O)c1ccc(-c2cccc(C3N(C(=O)OC(C)(C)C)CCC34C(=O)Nc3ccccc34)c2)cc1S(C)(=O)=O (centres undefined)

IC50 (U-87 MG [1]; u-87mg atcc): Not Active
Structure (SMILES): CC(C)(C)OC(=O)N1CC[C@@]2(C(=O)Nc3ccccc32)[C@@H]1c1cccc(-c2ccc(CO)c(S(C)(=O)=O)c2)c1

IC50 (U-87 MG [1]; [20]): 7.53 µM
Structure (SMILES): COC(=O)c1ccc(-c2cccc([C@H]3N(C(=O)OC(C)(C)C)CC[C@]34C(=O)Nc3ccccc34)c2)cc1S(C)(=O)=O

IC50 (U-87 MG [1]; u-87mg atcc): Not Active
Structure (SMILES): CC(C)(C)OC(=O)N1CC[C@@]2(C(=O)Nc3ccccc32)[C@@H]1c1cccc(-c2ccccc2)c1

IC50 (U-87 MG [1]; u-87mg atcc): Not Active
Structure (SMILES): CC(C)(C)OC(=O)N1CC[C@]2(C(=O)Nc3ccccc32)[C@H]1c1cccc(-c2ccc(CO)cc2)c1

IC50 (U-87 MG [1]; [20]): 7.05 µM
Structure (SMILES): CC(C)(C)OC(=O)N1CCC2(C(=O)Nc3ccccc32)C1c1cccc(-c2ccc(CO)c(S(C)(=O)=O)c2)c1 (centres undefined)

Reference: ChEMBL document CHEMBL4680249, “Discovery of new LXRβ agonists as glioblastoma inhibitors” (Eur J Med Chem, 2020)
